Laboratory results reported in PubChem BioAssay AID2060604 (Molecular Pharmacology Branch, DTP, NCI, 2025).

Tested on: 379773-124-R-J2-PDC complex spheroids, viability % test/control
Experiment: Anticancer human tumor 379773-124-R-J2-PDC patient-derived endometrial carcinoma cell line growth inhibition [CLK]
Settings: for IC50: curve of first compound; for viability, T/C: stronger effect = lower value
Outline: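 Multi-cell-type spheroids combined patient-derived tumor cells with HUVEC endothelial cells and human mesenchymal stem cells. Paired agents were dosed in half-log steps down from about clinical Cmax, or from 10 microM where Cmax was unknown.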

[1] = second compound 0.0316 µM, first compound 0.00949 µM
[2] = second compound 0.0316 µM, first compound 0.03 µM
[3] = second compound 0.0316 µM, first compound 0.0949 µM
[4] = second compound 0.0316 µM, first compound 0.3 µM
[5] = second compound 0.1 µM, first compound 0.00949 µM
[6] = second compound 0.1 µM, first compound 0.03 µM
[7] = second compound 0.1 µM, first compound 0.0949 µM
[8] = second compound 0.1 µM, first compound 0.3 µM
[9] = second compound 0.316 µM, first compound 0.00949 µM
[10] = second compound 0.316 µM, first compound 0.03 µM
[11] = second compound 0.316 µM, first compound 0.0949 µM
[12] = second compound 0.316 µM, first compound 0.3 µM
[13] = second compound 1 µM, first compound 0.00949 µM
[14] = second compound 1 µM, first compound 0.03 µM
[15] = second compound 1 µM, first compound 0.0949 µM
[16] = second compound 1 µM, first compound 0.3 µM
[17] = second compound 3.16 µM, first compound 0.00949 µM
[18] = second compound 3.16 µM, first compound 0.03 µM
[19] = second compound 3.16 µM, first compound 0.0949 µM
[20] = second compound 3.16 µM, first compound 0.3 µM
[21] = second compound 10 µM, first compound 0.00949 µM
[22] = second compound 10 µM, first compound 0.03 µM
[23] = second compound 10 µM, first compound 0.0949 µM
[24] = second compound 10 µM, first compound 0.3 µM
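Note: compound exposure lasted seven days before the viability readout.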
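Throughout, for viability, T/C: 100% = DMSO vehicle control wells.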

C=CC(=O)Nc1cc(Nc2nccc(-c3cn(C)c4ccccc34)n2)c(OC)cc1N(C)CCN(C)C + CN1CCN(c2cc(C(=O)Nc3cc4cc(-c5cnn(C)c5)ccc4cn3)ccn2)CC1
IC50 (second compound 0.0316 µM): > 300 nM
IC50 (second compound 0.1 µM): > 300 nM
IC50 (second compound 0.316 µM): < 0.949 nM
IC50 (second compound 1 µM): < 0.949 nM
IC50 (second compound 3.16 µM): < 0.949 nM
IC50 (second compound 10 µM): < 0.949 nM
viability, T/C (second compound 0.0316 µM, first compound 0.000949 µM): 100%
viability, T/C (second compound 0.0316 µM, first compound 0.003 µM): 93.1%
viability, T/C [1]: 99.4%
viability, T/C [2]: 84.7%
viability, T/C [3]: 96%
viability, T/C [4]: 89.7%
viability, T/C (second compound 0.1 µM, first compound 0.000949 µM): 80.4%
viability, T/C (second compound 0.1 µM, first compound 0.003 µM): 74%
viability, T/C [5]: 102%
viability, T/C [6]: 84%
viability, T/C [7]: 76.2%
viability, T/C [8]: 84.6%
viability, T/C (second compound 0.316 µM, first compound 0.000949 µM): 20.2%
viability, T/C (second compound 0.316 µM, first compound 0.003 µM): 31.4%
viability, T/C [9]: 34%
viability, T/C [10]: 34%
viability, T/C [11]: 29.6%
viability, T/C [12]: 20.9%
viability, T/C (second compound 1 µM, first compound 0.000949 µM): 0.28%
viability, T/C (second compound 1 µM, first compound 0.003 µM): 1.12%
viability, T/C [13]: 1.77%
viability, T/C [14]: 0.18%
viability, T/C [15]: 1.57%
viability, T/C [16]: 0.13%
viability, T/C (second compound 3.16 µM, first compound 0.000949 µM): 1.26%
viability, T/C (second compound 3.16 µM, first compound 0.003 µM): 0.19%
viability, T/C [17]: 0.82%
viability, T/C [18]: 1.59%
viability, T/C [19]: 0.11%
viability, T/C [20]: 0.61%
viability, T/C (second compound 10 µM, first compound 0.000949 µM): 0.28%
viability, T/C (second compound 10 µM, first compound 0.003 µM): 0.45%
viability, T/C [21]: 0.46%
viability, T/C [22]: 0.59%
viability, T/C [23]: 0.28%
viability, T/C [24]: 0.26%

NC(=O)C(=Cn1cnc(-c2cc(C(F)(F)F)cc(C(F)(F)F)c2)n1)c1cncnc1 + CN1CCN(c2cc(C(=O)Nc3cc4cc(-c5cnn(C)c5)ccc4cn3)ccn2)CC1
IC50 (second compound 0.0316 µM): 59 nM
IC50 (second compound 0.1 µM): 47.7 nM
IC50 (second compound 0.316 µM): < 9.49 nM
IC50 (second compound 1 µM): < 9.49 nM
IC50 (second compound 3.16 µM): < 9.49 nM
IC50 (second compound 10 µM): < 9.49 nM
viability, T/C [1]: 84.8%
viability, T/C [2]: 64.5%
viability, T/C [3]: 39.2%
viability, T/C [4]: 22.6%
viability, T/C (second compound 0.0316 µM, first compound 0.949 µM): 11.4%
viability, T/C (second compound 0.0316 µM, first compound 3 µM): 5.29%
viability, T/C [5]: 60.4%
viability, T/C [6]: 57.7%
viability, T/C [7]: 39.9%
viability, T/C [8]: 17.9%
viability, T/C (second compound 0.1 µM, first compound 0.949 µM): 8.03%
viability, T/C (second compound 0.1 µM, first compound 3 µM): 2.96%
viability, T/C [9]: 16.4%
viability, T/C [10]: 14.8%
viability, T/C [11]: 7.32%
viability, T/C [12]: 3.49%
viability, T/C (second compound 0.316 µM, first compound 0.949 µM): 1.06%
viability, T/C (second compound 0.316 µM, first compound 3 µM): 0.04%
viability, T/C [13]: 0.1%
viability, T/C [14]: 0.12%
viability, T/C [15]: 0.3%
viability, T/C [16]: 0.14%
viability, T/C (second compound 1 µM, first compound 0.949 µM): 1.96%
viability, T/C (second compound 1 µM, first compound 3 µM): 0.06%
viability, T/C [17]: 2.45%
viability, T/C [18]: 0.72%
viability, T/C [19]: 0.44%
viability, T/C [20]: 0.13%
viability, T/C (second compound 3.16 µM, first compound 0.949 µM): 0.11%
viability, T/C (second compound 3.16 µM, first compound 3 µM): 0.11%
viability, T/C [21]: 0.45%
viability, T/C [22]: 0.13%
viability, T/C [23]: 1.03%
viability, T/C [24]: 0.18%
viability, T/C (second compound 10 µM, first compound 0.949 µM): 0.19%
viability, T/C (second compound 10 µM, first compound 3 µM): 0.17%

Nc1ccccc1NC(=O)c1ccc(CNC(=O)OCc2cccnc2)cc1 + CN1CCN(c2cc(C(=O)Nc3cc4cc(-c5cnn(C)c5)ccc4cn3)ccn2)CC1
IC50 (second compound 0.0316 µM): 3110 nM
IC50 (second compound 0.1 µM): 1970 nM
IC50 (second compound 0.316 µM): < 31.6 nM
IC50 (second compound 1 µM): < 31.6 nM
IC50 (second compound 3.16 µM): < 31.6 nM
IC50 (second compound 10 µM): < 31.6 nM
viability, T/C (second compound 0.0316 µM, first compound 0.0316 µM): 89.8%
viability, T/C (second compound 0.0316 µM, first compound 0.1 µM): 92.6%
viability, T/C (second compound 0.0316 µM, first compound 0.316 µM): 113%
viability, T/C (second compound 0.0316 µM, first compound 1 µM): 104%
viability, T/C (second compound 0.0316 µM, first compound 3.16 µM): 49.1%
viability, T/C (second compound 0.0316 µM, first compound 10 µM): 10.4%
viability, T/C (second compound 0.1 µM, first compound 0.0316 µM): 82.2%
viability, T/C (second compound 0.1 µM, first compound 0.1 µM): 81%
viability, T/C (second compound 0.1 µM, first compound 0.316 µM): 111%
viability, T/C (second compound 0.1 µM, first compound 1 µM): 66.2%
viability, T/C (second compound 0.1 µM, first compound 3.16 µM): 36%
viability, T/C (second compound 0.1 µM, first compound 10 µM): 5.29%
viability, T/C (second compound 0.316 µM, first compound 0.0316 µM): 21.2%
viability, T/C (second compound 0.316 µM, first compound 0.1 µM): 27.6%
viability, T/C (second compound 0.316 µM, first compound 0.316 µM): 17.5%
viability, T/C (second compound 0.316 µM, first compound 1 µM): 13.2%
viability, T/C (second compound 0.316 µM, first compound 3.16 µM): 4.61%
viability, T/C (second compound 0.316 µM, first compound 10 µM): 0.06%
viability, T/C (second compound 1 µM, first compound 0.0316 µM): 0.13%
viability, T/C (second compound 1 µM, first compound 0.1 µM): 0.25%
viability, T/C (second compound 1 µM, first compound 0.316 µM): 0.3%
viability, T/C (second compound 1 µM, first compound 1 µM): 1.14%
viability, T/C (second compound 1 µM, first compound 3.16 µM): 0.04%
viability, T/C (second compound 1 µM, first compound 10 µM): 0.92%
viability, T/C (second compound 3.16 µM, first compound 0.0316 µM): 0.08%
viability, T/C (second compound 3.16 µM, first compound 0.1 µM): 0.1%
viability, T/C (second compound 3.16 µM, first compound 0.316 µM): 0.08%
viability, T/C (second compound 3.16 µM, first compound 1 µM): 1.25%
viability, T/C (second compound 3.16 µM, first compound 3.16 µM): 0.1%
viability, T/C (second compound 3.16 µM, first compound 10 µM): 0.09%
viability, T/C (second compound 10 µM, first compound 0.0316 µM): 0.15%
viability, T/C (second compound 10 µM, first compound 0.1 µM): 0.81%
viability, T/C (second compound 10 µM, first compound 0.316 µM): 0.62%
viability, T/C (second compound 10 µM, first compound 1 µM): 1.15%
viability, T/C (second compound 10 µM, first compound 3.16 µM): 1.4%
viability, T/C (second compound 10 µM, first compound 10 µM): 0.15%
